Data from ChEMBL document CHEMBL5634121, “Discovery of novel G9a/GLP covalent inhibitors for the treatment of triple-negative breast cancer” (Eur J Med Chem, 2023).

Experiments:
[1] = target: T1, Histone-lysine N-methyltransferase EHMT2 (Homo sapiens) (UniProt Q96KQ7); test: Inhibition of G9a (unknown origin) at 1 uM by AlphaLISA immunodetection assay relative to control
T1 sequence (whole entry): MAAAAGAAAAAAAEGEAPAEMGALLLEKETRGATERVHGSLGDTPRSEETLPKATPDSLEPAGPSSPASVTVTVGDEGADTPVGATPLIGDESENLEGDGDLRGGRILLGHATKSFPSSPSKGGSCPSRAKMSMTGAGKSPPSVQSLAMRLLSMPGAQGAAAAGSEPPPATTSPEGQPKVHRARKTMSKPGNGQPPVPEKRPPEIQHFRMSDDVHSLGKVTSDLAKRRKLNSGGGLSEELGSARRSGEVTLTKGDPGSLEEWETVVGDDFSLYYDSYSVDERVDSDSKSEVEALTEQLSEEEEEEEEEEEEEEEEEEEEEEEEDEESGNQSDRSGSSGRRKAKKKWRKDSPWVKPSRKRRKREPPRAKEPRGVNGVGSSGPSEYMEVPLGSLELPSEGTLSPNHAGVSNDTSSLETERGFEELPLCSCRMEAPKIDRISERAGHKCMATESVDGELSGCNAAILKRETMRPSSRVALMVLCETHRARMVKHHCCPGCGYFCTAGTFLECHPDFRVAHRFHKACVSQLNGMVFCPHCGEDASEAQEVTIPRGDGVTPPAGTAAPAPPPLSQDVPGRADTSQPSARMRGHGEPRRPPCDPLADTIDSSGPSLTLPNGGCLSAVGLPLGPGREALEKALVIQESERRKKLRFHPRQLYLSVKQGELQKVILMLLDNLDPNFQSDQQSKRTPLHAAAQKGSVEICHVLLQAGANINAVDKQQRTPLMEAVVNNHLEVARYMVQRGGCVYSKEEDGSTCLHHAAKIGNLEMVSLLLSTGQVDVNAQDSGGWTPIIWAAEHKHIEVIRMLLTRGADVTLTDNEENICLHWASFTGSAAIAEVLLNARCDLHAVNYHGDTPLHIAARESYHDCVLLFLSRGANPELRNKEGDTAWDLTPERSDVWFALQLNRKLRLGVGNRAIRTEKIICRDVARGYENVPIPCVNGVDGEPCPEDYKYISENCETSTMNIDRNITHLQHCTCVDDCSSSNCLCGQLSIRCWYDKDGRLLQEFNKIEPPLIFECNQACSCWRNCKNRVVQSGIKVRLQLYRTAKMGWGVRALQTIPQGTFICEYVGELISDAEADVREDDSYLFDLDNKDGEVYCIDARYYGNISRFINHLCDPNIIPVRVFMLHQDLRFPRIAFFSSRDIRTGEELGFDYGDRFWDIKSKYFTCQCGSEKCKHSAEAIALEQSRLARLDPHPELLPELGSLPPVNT

[2] = Cmax in ICR mouse at 2 mg/kg, iv measured upto 12 hrs by LC-MS/MS analysis; format: ADME, organism-based; conditions: in vivo
[3] = AUC(0 to infinity) in ICR mouse at 2 mg/kg, iv measured upto 12 hrs by LC-MS/MS analysis; format: ADME, organism-based; conditions: in vivo
[4] = AUC(0 to t) in ICR mouse at 2 mg/kg, iv measured upto 12 hrs by LC-MS/MS analysis; format: ADME, organism-based; conditions: in vivo
MDA-MB-231 [5] = test: Antiproliferative activity against human MDA-MB-231 cells after 5 days by MTT assay; format: functional, cell-based; conditions: MDA-MB-231, 120 h
MDA-MB-231 [6] = test: Induction of apoptosis in human MDA-MB-231 cells assessed as late apoptotic cells at 5 uM incubated for 72 hrs by Annexin V and PI staining based flow cytometry analysis (reference value: 0.45 %); format: functional
MDA-MB-231 [7] = test: Induction of apoptosis in human MDA-MB-231 cells assessed as early apoptotic cells at 10 uM incubated for 72 hrs by Annexin V and PI staining based flow cytometry analysis (reference value: 0.92 %); format: functional
MDA-MB-231 [8] = test: Induction of apoptosis in human MDA-MB-231 cells assessed as necrotic cells at 10 uM incubated for 72 hrs by Annexin V and PI staining based flow cytometry analysis (reference value: 0.32 %); format: functional
[9] = target: Histone-lysine N-methyltransferase EHMT1/EHMT2 (Homo sapiens) (UniProt Q9H9B1+Q96KQ7); test: Inhibition of G9a/GLP in human MDA-MB-231 cells assessed as reduction in H3K9 dimethylation incubated for 3 days by Western blotting analysis; format: cell-based; conditions: dose 2.5-20 µM, time 3.0 day
Chain of Histone-lysine N-methyltransferase EHMT1/EHMT2 (Homo sapiens) (Q9H9B1 whole entry, looked up, one chain of several): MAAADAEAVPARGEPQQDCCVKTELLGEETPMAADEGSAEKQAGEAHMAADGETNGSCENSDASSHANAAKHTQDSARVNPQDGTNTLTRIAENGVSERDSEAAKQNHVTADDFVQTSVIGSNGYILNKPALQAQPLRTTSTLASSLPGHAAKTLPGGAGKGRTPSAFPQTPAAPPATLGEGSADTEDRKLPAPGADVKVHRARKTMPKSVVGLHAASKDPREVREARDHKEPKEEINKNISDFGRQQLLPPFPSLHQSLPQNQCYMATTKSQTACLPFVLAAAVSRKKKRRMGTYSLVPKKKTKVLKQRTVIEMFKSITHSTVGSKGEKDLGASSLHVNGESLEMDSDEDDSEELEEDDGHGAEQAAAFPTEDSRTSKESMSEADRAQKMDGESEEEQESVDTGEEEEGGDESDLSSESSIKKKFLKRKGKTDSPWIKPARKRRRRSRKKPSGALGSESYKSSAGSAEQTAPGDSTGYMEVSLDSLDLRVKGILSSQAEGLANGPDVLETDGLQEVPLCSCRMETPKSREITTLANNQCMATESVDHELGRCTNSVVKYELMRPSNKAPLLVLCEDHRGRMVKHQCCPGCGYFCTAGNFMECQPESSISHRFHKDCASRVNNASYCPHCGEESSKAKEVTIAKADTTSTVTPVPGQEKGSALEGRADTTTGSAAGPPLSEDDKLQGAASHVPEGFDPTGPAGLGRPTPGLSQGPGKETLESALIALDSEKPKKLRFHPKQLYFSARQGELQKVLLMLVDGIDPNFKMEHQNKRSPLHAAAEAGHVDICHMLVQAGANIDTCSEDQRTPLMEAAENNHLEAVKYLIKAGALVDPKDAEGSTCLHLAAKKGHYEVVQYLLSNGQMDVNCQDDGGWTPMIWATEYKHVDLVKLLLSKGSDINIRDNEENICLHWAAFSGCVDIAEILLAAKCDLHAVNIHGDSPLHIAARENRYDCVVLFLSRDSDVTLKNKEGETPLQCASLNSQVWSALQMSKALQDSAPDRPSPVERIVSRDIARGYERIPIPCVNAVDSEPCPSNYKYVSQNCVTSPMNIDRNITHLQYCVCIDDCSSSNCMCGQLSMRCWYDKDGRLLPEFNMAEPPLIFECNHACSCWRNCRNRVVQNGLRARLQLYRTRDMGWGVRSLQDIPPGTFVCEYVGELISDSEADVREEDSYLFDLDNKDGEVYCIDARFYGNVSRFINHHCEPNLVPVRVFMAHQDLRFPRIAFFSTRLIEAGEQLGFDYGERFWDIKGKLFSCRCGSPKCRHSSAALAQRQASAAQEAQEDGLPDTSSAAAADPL

inhibition [1]: 96% | Cmax [2]: 911 ng/mL | AUC(0-inf) [3]: 1690 ng·h/mL | AUC(0-t) at 12 h [4]: 1650 ng·h/mL | IC50 (MDA-MB-231 [5]): 598 nM | inhibition [9]: Dose-Dependent Effect
SMILES: C=CC(=O)Nc1cccc(-c2nc(NC3CCN(C)CC3)c3cc(OC)c(OC)cc3n2)c1
Activity (MDA-MB-231 [6]): 3.01% | Activity (MDA-MB-231 [7]): 3.7% | Activity (MDA-MB-231 [8]): 1.28%
